The values that follow come from patent US20120122870A1, “Treatment Of Ischemia-Reperfusion Injury” (MUSC FOUNDATION FOR RESEARCH DEVELOPMENT, priority 2009, published 2012).

The target in one assay is T1, recombinant human SK (Homo sapiens, UniProt Q9NYA1).
T1 construct: GST (glutathione-S-transferase) (N); made in house; host or cells: bacteria (pGEX bacterial expression vector)
Kind of assay: Recombinant human SK activity assay ([3H]sphingosine to [3H]S1P). Type of assay: biochemical. Particulars: Human SK incubated with 6 μg/mL of compound; percentage of SK activity inhibited.

Assay [1] deals with endogenous SK activity in MDA-MB-231 cells. Kind of assay: Cellular S1P production (endogenous SK activity) in MDA-MB-231 cells. The conditions noted are these: for inhibition at 20 µg/mL / IC50: Homo sapiens; for inhibition at 20 µg/mL: MDA-MB-231, MDA-MB-231 cells incubated with 20 μg/mL of compound; for inhibition at 20 µg/mL / Cellular S1P (% inhibition): percentage of S1P production inhibited; for IC50: MDA-MB-231 cells, varying concentrations, concentration inhibiting S1P production by 50%; for Cellular S1P (% inhibition): MDA-MB-231 cells incubated with 20 μg/mL of compound. Format: cell-based. Put shortly:
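MDA-MB-231 cells treated with 20 μg/mL compound and assayed for endogenous SK activity, reported as % inhibition of S1P production. For IC50, cells received varying compound concentrations and S1P produced was measured; IC50 is the concentration giving 50% inhibition.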

T1 sequence (Q9NYA1 whole entry): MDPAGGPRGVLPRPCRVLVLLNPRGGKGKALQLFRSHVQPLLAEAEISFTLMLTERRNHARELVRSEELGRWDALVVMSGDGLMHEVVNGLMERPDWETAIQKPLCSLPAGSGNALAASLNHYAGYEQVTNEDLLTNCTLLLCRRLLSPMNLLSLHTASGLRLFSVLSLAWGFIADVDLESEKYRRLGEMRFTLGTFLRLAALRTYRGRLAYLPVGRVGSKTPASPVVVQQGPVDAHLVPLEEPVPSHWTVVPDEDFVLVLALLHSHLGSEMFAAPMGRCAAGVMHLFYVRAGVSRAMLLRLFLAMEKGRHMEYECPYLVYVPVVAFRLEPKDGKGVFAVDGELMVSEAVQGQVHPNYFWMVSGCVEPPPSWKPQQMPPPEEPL

In general, inhibition refers to the change of the read-out against control, counted positive when it falls. Take `O=C(NCCc1ccc(Br)cc1)C12CC3CC(C1)CC(c1ccc(Cl)cc1)(C3)C2` [A39, 3-(4-Chloro-phenyl)-adamantane-1-carboxylic acid [2-(4-bromo-phenyl)-ethyl]-amide]: the inhibition at 6 µg/mL at recombinant human SK worked out at 19%. This molecule had an inhibition at 20 µg/mL in assay [1] of 26%.
On the same counts, the results for `O=C(NCCc1ccc(O)cc1)C12CC3CC(C1)CC(c1ccc(Cl)cc1)(C3)C2` [A40, 3-(4-Chloro-phenyl)-adamantane-1-carboxylic acid [2-(4-hydroxy-phenyl)-ethyl]-amide] are 100% and 52%.
With `O=C(NCc1ccc(Oc2ccccc2)cc1)C12CC3CC(C1)CC(c1ccc(Cl)cc1)(C3)C2` [A41, 3-(4-Chloro-phenyl)-adamantane-1-carboxylic acid 4-phenoxy-benzylamide], the “Recombinant SK (% inhibition)” value on recombinant human SK is 67%. Besides, at 20 µg/mL the inhibition in assay [1] was 23%.
`O=C(NCCc1ccc(O)c(O)c1)C12CC3CC(CC(C3)C1)C2` [A43, Adamantane-1-carboxylic acid [2-(3,4-dihydroxy-phenyl)-ethyl]-amide]: on recombinant human SK, the inhibition at 6 µg/mL was found to be 0%. The inhibition at 20 µg/mL in assay [1] was determined as 0%.
Regarding `O=C(NCCCc1ccccc1)C12CC3CC(C1)CC(c1ccc(Cl)cc1)(C3)C2` [A48, 3-(4-Chloro-phenyl)-adamantane-1-carboxylic acid (3-phenyl-propyl)-amide], the inhibition at 6 µg/mL at recombinant human SK was found to be 36%. In assay [1], this molecule displayed an inhibition at 20 µg/mL of 14%.
`CN1CCC(NC(=O)C23CC4CC(CC(C4)C2)C3)CC1` [A50, Adamantane-1-carboxylic acid (1-methyl-piperidin-4-yl)-amide]: the inhibition at 6 µg/mL on recombinant human SK stood at 0%. The molecule further gave an inhibition at 20 µg/mL in assay [1] of 44%.
In general, IC50 refers to the concentration that inhibits the measured activity by half. A higher IC50 goes with weaker potency. Turning to `CN1CCC(NC(=O)C23CC4CC(C2)CC(c2ccc(Cl)cc2)(C4)C3)CC1` [A51, 3-(4-Chloro-phenyl)-adamantane-1-carboxylic acid (1-methyl-piperidin-4-yl)-amide], the inhibition at 6 µg/mL at recombinant human SK amounted to 84%. Besides, in assay [1], at 20 µg/mL the inhibition was 88% and the IC50 was found to be 25 µM.
`CN1CCN(NC(=O)C23CC4CC(C2)CC(c2ccc(Cl)cc2)(C4)C3)CC1` [A52, 3-(4-Chloro-phenyl)-adamantane-1-carboxylic acid (4-methyl-piperazin-1-yl)-amide]: the inhibition at 6 µg/mL on recombinant human SK was determined as 54%. Further, 20 µg/mL produced 61% inhibition in assay [1].
The like results for `CN1CCCC1CCNC(=O)C12CC3CC(CC(C3)C1)C2` (centres unmarked) [A56, Adamantane-1-carboxylic acid [2-(1-methyl-pyrrolidin-2-yl)-ethyl]-amide] were, in that order, 33% and 40%.
For the molecule `CN1CCCC1CCNC(=O)C12CC3CC(C1)CC(c1ccc(Cl)cc1)(C3)C2` (centres unmarked) [A57, 3-(4-Chloro-phenyl)-adamantane-1-carboxylic acid [2-(1-methyl-pyrrolidin-2-yl)-ethyl]-amide], the inhibition at 6 µg/mL at recombinant human SK came to 30%. Moreover, in assay [1], the inhibition at 20 µg/mL stood at 83% and the concentration for half-maximal inhibition (IC50) worked out at 60 µM.
`O=C(NCCN1CCOCC1)C12CC3CC(C1)CC(c1ccc(Cl)cc1)(C3)C2` [A58, 3-(4-Chloro-phenyl)-adamantane-1-carboxylic acid (2-morpholin-4-yl-ethyl)-amide]: on recombinant human SK, the inhibition at 6 µg/mL is 67%. In addition, the inhibition at 20 µg/mL in assay [1] turned out to be 55%.
The like results for `O=C(NCc1ccncc1)C12CC3CC(CC(C3)C1)C2` [A60, Adamantane-1-carboxylic acid (pyridin-4-ylmethyl)-amide] were, in that order, 0% and 23%.
On the same counts, the results for `O=C(NCc1ccncc1)C12CC3CC(C1)CC(c1ccc(F)cc1)(C3)C2` [A61, 3-(4-Fluoro-phenyl)-adamantane-1-carboxylic acid (pyridin-4-ylmethyl)-amide] are 58% and 24%.
Regarding `O=C(NCc1ccncc1)C12CC3CC(C1)CC(c1ccc(Cl)cc1)(C3)C2` [A62, 3-(4-Chloro-phenyl)-adamantane-1-carboxylic acid (pyridin-4-ylmethyl)-amide], the inhibition at 6 µg/mL on recombinant human SK is 13%. For the same molecule, in assay [1], the inhibition at 20 µg/mL stood at 92% and the IC50 was found to be 26 µM.
On to `O=C(NCc1ccncc1)C12CC3CC(CC(C3)C1)C2` [A63, Adamantane-1-carboxylic acid (pyridin-4-ylmethyl)-amide], for which the “Recombinant SK (% inhibition)” value on recombinant human SK turned out to be 0%. For the same molecule, the “Cellular S1P (% inhibition)” value in assay [1] turned out to be 39%.
For the molecule `O=C(NCCc1ccncc1)C12CC3CC(C1)CC(c1ccc(Cl)cc1)(C3)C2` [A64, 3-(4-Chloro-phenyl)-adamantane-1-carboxylic acid (2-pyridin-4-yl-ethyl)-amide], at recombinant human SK, the inhibition at 6 µg/mL worked out at 41%. In assay [1], this molecule showed an inhibition at 20 µg/mL of 80% and an IC50 of 63 µM.
As to `Cc1cc2cc(NC(=O)C34CC5CC(C3)CC(c3ccc(Cl)cc3)(C5)C4)ccc2[nH]1` [A66, 3-(4-Chloro-phenyl)-adamantane-1-carboxylic acid (2-methyl-1H-indol-5-yl)-amide], at recombinant human SK, the inhibition at 6 µg/mL turned out to be 92%. This molecule yielded an inhibition at 20 µg/mL in assay [1] of 8%.
On the same counts, the results for `CCn1c2ccccc2c2cc(NC(=O)C34CC5CC(C3)CC(c3ccc(Cl)cc3)(C5)C4)ccc21` [A68, 3-(4-Chloro-phenyl)-adamantane-1-carboxylic acid (9-ethyl-9H-carbazol-3-yl)-amide] are 17% and 0%.
The like results for `O=C(Nc1nc(-c2ccc(Cl)cc2)cs1)C12CC3CC(CC(C3)C1)C2` [A69, Adamantane-1-carboxylic acid [4-(4-chloro-phenyl)-thiazol-2-yl]-amide] were, in that order, 40% and 13%.
On the same counts, the results for `O=C(Nc1nc(-c2ccc(Cl)cc2)cs1)C12CC3CC(C1)CC(c1ccc(Cl)cc1)(C3)C2` [A70, 3-(4-Chloro-phenyl)-adamantane-1-carboxylic acid [4-(4-chloro-phenyl)-thiazol-2-yl]-amide] are 33% and 4%.
Take `O=C(Nc1nc2ccccc2s1)C12CC3CC(C1)CC(c1ccc(Cl)cc1)(C3)C2` [A71, 3-(4-Chloro-phenyl)-adamantane-1-carboxylic acid benzothiazol-2-ylamide]: the inhibition at 6 µg/mL on recombinant human SK was determined as 27%. In assay [1], this molecule registered an inhibition at 20 µg/mL of 0%.
On the same counts, the results for `O=C(Nc1nc2cc(Cl)ccc2o1)C12CC3CC(C1)CC(c1ccc(Cl)cc1)(C3)C2` [A72, 3-(4-Chloro-phenyl)-adamantane-1-carboxylic acid (5-chloro-benzooxazol-2-yl)-amide] are 14% and 1%.
`CN1CCN(NCC23CC4CC(C2)CC(c2ccc(Cl)cc2)(C4)C3)CC1` [A83, [3-(4-Chloro-phenyl)-adamantan-1-ylmethyl]-(4-methyl-piperazin-1-yl)-amine]: the inhibition at 6 µg/mL on recombinant human SK was found to be 60%. In assay [1], this molecule registered an inhibition at 20 µg/mL of 88% and an IC50 of 16 µM.
Regarding `Clc1ccc(C23CC4CC(CC(CNCCN5CCOCC5)(C4)C2)C3)cc1` [A87, [3-(4-Chloro-phenyl)-adamantan-1-ylmethyl]-(2-morpholin-4-yl-ethyl)-amine], on recombinant human SK, the inhibition at 6 µg/mL came out at 75%. In assay [1], this molecule registered an inhibition at 20 µg/mL of 55% and an IC50 of 64 µM.
With `CCn1c2ccccc2c2cc(NCC34CC5CC(C3)CC(c3ccc(Cl)cc3)(C5)C4)ccc21` [A89, [3-(4-Chloro-phenyl)-admantan-1-ylmethyl]-(9-ethyl-9H-carbazol-3-yl)-amine], on recombinant human SK, the “Recombinant SK (% inhibition)” value was determined as 37%. In addition, the “Cellular S1P (% inhibition)” value in assay [1] came out at 1%.
`Clc1ccc(-c2cnc(NCC34CC5CC(C3)CC(c3ccc(Cl)cc3)(C5)C4)s2)cc1` [A90, [3-(4-Chloro-phenyl)-adamantan-1-ylmethyl]-[5-(4-chloro-phenyl)-thiazol-2-yl]-amine]: the inhibition at 6 µg/mL at recombinant human SK is 26%. This molecule also came in with an inhibition at 20 µg/mL in assay [1] of 16%.
As to `CCn1c2ccccc2c2cc(NC(C)C34CC5CC(CC(c6ccc(Cl)cc6)(C5)C3)C4)ccc21` (centres unmarked) [A114, {1-[3-(4-Chloro-phenyl)-adamantan-1-yl]-ethyl}-(9-ethyl-9H-carbazol-3-yl)-amine], the inhibition at 6 µg/mL on recombinant human SK stood at 33%. In assay [1], this molecule returned an inhibition at 20 µg/mL of 46% and an IC50 of 51 µM.
For the molecule `CC(NC(=O)Nc1ccc(Cl)c(C(F)(F)F)c1)C12CC3CC(CC(c4ccc(Cl)cc4)(C3)C1)C2` (centres unmarked) [A118, 1-{1-[3-(4-Chloro-phenyl)-adamantan-1-yl]-ethyl}-3-(4-chloro-3-trifluoromethyl-phenyl)-urea], the inhibition at 6 µg/mL at recombinant human SK was determined as 77%. Further, at 20 µg/mL the inhibition in assay [1] was 5%.
For the molecule `CCCCCCCCCCCCCCCC(=O)Nc1nc(-c2ccc(Cl)cc2)cs1` [B3, Hexadecanoic acid [4-(4-chloro-phnyl)-thiazol-2-yl]-amide], at recombinant human SK, the “Recombinant SK (% inhibition)” value came to 88%. For the same molecule, the “Cellular S1P (% inhibition)” value in assay [1] amounted to 34%.
